Test systems include MALME-3M melanoma; SF-539 CNS; A549 NSCLC; HT29 colon; SK-OV-3 ovarian; HOP-92 NSCLC; SR leukemia; UO-31 renal; LOX IMVI melanoma; OVCAR-5 ovarian.
Common to all, as to assay: NCI anticancer screen, dose series, 48 h

Each structure is given as a SMILES string. Where “and” joins values, the source holds several entries; their conditions need not be identical. Identical values can stand only once.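 Cells were grown in 96-well plates and exposed to each compound for 48 hours at five concentrations; endpoints were interpolated linearly between bracketing concentrations, or set to the highest concentration if not reached. GI50 is the concentration that inhibits growth by half. TGI denotes the concentration required for complete inhibition of growth.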

As for `CSc1ccc2c(c1)N(CCC1CCCCN1C)c1ccccc1S2` (configuration not stated), the GI50 with MALME-3M melanoma is 6.91 µM and 1.67 µM; in the test on SF-539 CNS, 14.1 µM and 5.63 µM; with A549 NSCLC, 10.9 µM and 2.65 µM; in the test on HT29 colon, 4.08 µM and 2.54 µM; with SK-OV-3 ovarian, 13 µM and 13.8 µM; with HOP-92 NSCLC, 2.11 µM. In addition, the GI50 is 4.45 µM and 3.41 µM in the test with SR leukemia; 3.26 µM and 3.61 µM in the test with UO-31 renal; 3.44 µM and 1.78 µM with LOX IMVI melanoma; 10.1 µM and 3.83 µM with OVCAR-5 ovarian. Besides, the TGI in the test with MALME-3M melanoma is 23.8 µM and 3.67 µM; in the test with SF-539 CNS, 28.2 µM and 18.2 µM; in the test with A549 NSCLC, 24.1 µM and 10.3 µM; with HT29 colon, 15.1 µM and 7.9 µM; in the test on SK-OV-3 ovarian, 27.5 µM and 29 µM; with HOP-92 NSCLC it was 8.51 µM. The TGI was 17.2 µM and 12.4 µM in the test with SR leukemia; 14.5 µM and 15.4 µM with UO-31 renal; 14.8 µM and 3.34 µM in the test on LOX IMVI melanoma; 22 µM and 13.2 µM in the test with OVCAR-5 ovarian.
Take `CSc1ccc(OCC2OC2O)cc1` (configuration not stated): the TGI with MALME-3M melanoma was more than 100 µM; with SF-539 CNS, more than 100 µM; in the test on A549 NSCLC it was more than 100 µM; in the test with HT29 colon, more than 90.9 µM; in the test with SK-OV-3 ovarian it was more than 100 µM; in the test on HOP-92 NSCLC, more than 100 µM. Moreover, the TGI in the test with SR leukemia is more than 100 µM; in the test on UO-31 renal it was more than 100 µM; in the test with LOX IMVI melanoma it was more than 31.6 µM; with OVCAR-5 ovarian, more than 100 µM.
Consider `Cc1[nH]c(C(=O)Nc2ccccc2OC2CCNCC2)c(Cl)c1Cl`, for which the GI50 with MALME-3M melanoma is 0.809 µM; in the test on SF-539 CNS, 0.856 µM; in the test with A549 NSCLC it was 1.22 µM; in the test with HT29 colon, 0.875 µM; with SK-OV-3 ovarian, 8.46 µM; with HOP-92 NSCLC, 0.702 µM. The GI50 in the test on SR leukemia is 1.46 µM; with UO-31 renal, 0.656 µM; in the test on LOX IMVI melanoma, 0.882 µM; with OVCAR-5 ovarian it was 1.28 µM. Besides, the TGI in the test on MALME-3M melanoma stood at 1.55 µM; in the test on SF-539 CNS, 1.56 µM; in the test on A549 NSCLC, 3.35 µM; in the test on HT29 colon it was 1.71 µM; with SK-OV-3 ovarian it was 16.1 µM; in the test with HOP-92 NSCLC, 1.79 µM. Also, the TGI amounted to 5.69 µM with SR leukemia, 1.32 µM in the test with UO-31 renal, 1.61 µM with LOX IMVI melanoma and 4.32 µM in the test with OVCAR-5 ovarian.
For `C=C1CCC2C3(C)COC(c4c(OC)cccc4OC)OC3CCC2(C)C1C/C=C1/C(=O)OCC1O` (configuration not stated), the GI50 with MALME-3M melanoma was 8.92 µM; in the test on SF-539 CNS, 2.55 µM; with A549 NSCLC, 3.14 µM; with HT29 colon it was 2.51 µM; with SK-OV-3 ovarian, 5.71 µM; in the test on HOP-92 NSCLC, 2.92 µM. Moreover, the GI50 in the test on SR leukemia is 1.62 µM; with UO-31 renal, 2.01 µM; in the test on LOX IMVI melanoma, 1.63 µM; in the test on OVCAR-5 ovarian, 3.39 µM. In addition, the TGI with MALME-3M melanoma worked out at 27.7 µM; in the test with SF-539 CNS, 6.35 µM; in the test on A549 NSCLC, 11.6 µM; with HT29 colon, 6.62 µM; in the test on SK-OV-3 ovarian, 20.3 µM; in the test with HOP-92 NSCLC it was 8.51 µM. In addition, the TGI was found to be 4.99 µM in the test with SR leukemia, 4.33 µM in the test on UO-31 renal, 3.25 µM in the test on LOX IMVI melanoma and 8.63 µM in the test on OVCAR-5 ovarian.
For `Cn1c(=O)c2ccc(-c3ccc(Br)cc3)nc2n(C)c1=O`, the TGI in the test on MALME-3M melanoma, in the test with SF-539 CNS, in the test with A549 NSCLC, in the test on HT29 colon, in the test with SK-OV-3 ovarian and with HOP-92 NSCLC was more than 100 µM throughout. Besides, the TGI with SR leukemia, in the test with UO-31 renal, in the test on LOX IMVI melanoma and in the test on OVCAR-5 ovarian was more than 100 µM each time.
As for `COC1=C(Br)C(O)C2(C=C1Br)CC(C(=O)NCCCCNC(=O)C1=NOC3(C=C(Br)C(OC)=C(Br)C3O)C1)=NO2` (configuration not stated), the TGI was 45.5 µM in the test on MALME-3M melanoma; 50.3 µM in the test with SF-539 CNS; more than 100 µM with A549 NSCLC; 38.8 µM in the test with HT29 colon; more than 100 µM with SK-OV-3 ovarian; 94.9 µM with HOP-92 NSCLC. Besides, the TGI is 38.9 µM in the test on SR leukemia, more than 100 µM in the test on UO-31 renal, 35.1 µM with LOX IMVI melanoma and more than 100 µM in the test with OVCAR-5 ovarian.
Take `Cc1cccc2nc3cccc(C(=O)NCCNCCNCCNC(=O)c4cccc5nc6cccc(C)c6nc45)c3nc12`: the GI50 with MALME-3M melanoma was less than 0.0302 µM; in the test on SF-539 CNS, less than 0.0254 µM; in the test on HT29 colon, less than 0.01 µM; with SK-OV-3 ovarian it was 0.0933 µM; in the test with HOP-92 NSCLC it was less than 0.0317 µM; with SR leukemia, less than 0.01 µM. The GI50 was 0.0238 µM in the test with UO-31 renal, less than 0.01 µM in the test with LOX IMVI melanoma and 0.12 µM with OVCAR-5 ovarian. In addition, the TGI in the test on MALME-3M melanoma came out at 2.21 µM; in the test on SF-539 CNS, 4.06 µM; with HT29 colon it was 0.254 µM; in the test on SK-OV-3 ovarian it was 12.8 µM; in the test with HOP-92 NSCLC, 0.519 µM; in the test with SR leukemia, 1.22 µM. Besides, the TGI with LOX IMVI melanoma came to 0.53 µM; in the test with OVCAR-5 ovarian, 11.1 µM.
For the compound `Nc1ccccc1NC(=O)c1ccc(CN2CCC/C(=C\c3ccccn3)C2=O)cc1`, the GI50 is 1.01 µM in the test with MALME-3M melanoma; 1.58 µM with SF-539 CNS; 2.41 µM in the test on A549 NSCLC; 0.443 µM in the test with HT29 colon; 1.93 µM with SK-OV-3 ovarian; 0.143 µM in the test on HOP-92 NSCLC. Further, the GI50 is 0.47 µM in the test on SR leukemia, 1.24 µM in the test on UO-31 renal and 0.696 µM in the test with LOX IMVI melanoma. Also, the TGI in the test with MALME-3M melanoma was more than 100 µM; in the test on SF-539 CNS, more than 100 µM; in the test on A549 NSCLC, more than 100 µM; with HT29 colon, more than 100 µM; in the test on SK-OV-3 ovarian, more than 100 µM; with HOP-92 NSCLC it was 2.98 µM. Moreover, the TGI with SR leukemia was more than 100 µM; in the test on UO-31 renal it was 15.9 µM; in the test with LOX IMVI melanoma, 3.07 µM.
Consider `CC(C)=CCC1=C(OCC(=O)O)C(=O)c2ccccc2C1=O`, for which the TGI was 35 µM in the test on MALME-3M melanoma; 56.6 µM in the test with SF-539 CNS; more than 100 µM with A549 NSCLC; more than 100 µM in the test with HT29 colon; more than 100 µM with SK-OV-3 ovarian; more than 100 µM in the test with HOP-92 NSCLC. The TGI in the test with SR leukemia, in the test on UO-31 renal and with LOX IMVI melanoma was more than 100 µM each time.
With `O=[N+]([O-])c1ccc(Sc2nc(Cl)nc(NC3CCCC3)n2)cc1`, the GI50 with MALME-3M melanoma, with SF-539 CNS, with HT29 colon, in the test with SK-OV-3 ovarian, in the test with HOP-92 NSCLC and with SR leukemia was more than 10 µM each time. Besides, the GI50 is 3.08 µM in the test on UO-31 renal, more than 10 µM with LOX IMVI melanoma and more than 10 µM in the test with OVCAR-5 ovarian. In addition, the TGI in the test with MALME-3M melanoma, with SF-539 CNS, in the test with HT29 colon, in the test with SK-OV-3 ovarian, in the test on HOP-92 NSCLC and with SR leukemia was more than 10 µM each time. The TGI in the test on UO-31 renal, in the test on LOX IMVI melanoma and in the test on OVCAR-5 ovarian was more than 10 µM in each case.

These data come from PubChem BioAssay (NCI).
